The subject of one data set is EBOV (Makona). Kind of data set: microbe, parasite or virus in culture. The data set is classed as cell-based, Ebola virus. The following applies: for EC50: Zaire ebolavirus, HeLa.
In a further data set the test system is Rift Valley Fever. Kind of data set: microbe, parasite or virus in culture. Type of data set: cell-based. The following applies: Huh-7, read-out: Rift Valley Fever EC50.
Another data set has as its system MARV (Ci67). Kind of data set: organism not typed. The data set is classed as cell-based, Marburg virus. The following applies: for EC50: HeLa.
The next data set has as its system HeLa cells. The following applies: human.
The test system of a further data set is Huh7 cells. The conditions noted are these: human.
The subject of a further data set is SUDV (Gulu). Kind of data set: microbe, parasite or virus in culture. The data set is classed as cell-based, Sudan virus. The conditions noted are these: for EC50: Sudan ebolavirus, HeLa.
In data set [1] the test system is recombinant reporter EBOV. Kind of data set: microbe, parasite or virus in culture. The conditions noted are these: for EC50: Zaire ebolavirus. Type of data set: cell-based, Ebola virus.
In the next data set the test system is Lassa Virus. Kind of data set: microbe, parasite or virus in culture. Type of data set: cell-based. The following applies: Mammarenavirus lassaense, Huh-7, read-out: Lassa Virus EC50.
Data set [2] has as its target SARS-CoV nsp14 (N7 MTase) (Severe acute respiratory syndrome coronavirus, UniProt P0C6X7). Type of data set: biochemical.
A further data set concerns the target T1, Zika virus NS5 MTase (Zika virus, UniProt A0A024B7W1).
T1 construct: Zika virus NS5 MTase: 500 nM
Briefly: biochemical.

For data set [3], the target named is MERS polymerase complex (12HC/7HC8) (Middle East respiratory syndrome-related coronavirus, UniProt K9N7C7). The data set is classed as biochemical.
Sequence of MERS polymerase complex (12HC/7HC8) (K9N7C7 4378-5310 limits assumed): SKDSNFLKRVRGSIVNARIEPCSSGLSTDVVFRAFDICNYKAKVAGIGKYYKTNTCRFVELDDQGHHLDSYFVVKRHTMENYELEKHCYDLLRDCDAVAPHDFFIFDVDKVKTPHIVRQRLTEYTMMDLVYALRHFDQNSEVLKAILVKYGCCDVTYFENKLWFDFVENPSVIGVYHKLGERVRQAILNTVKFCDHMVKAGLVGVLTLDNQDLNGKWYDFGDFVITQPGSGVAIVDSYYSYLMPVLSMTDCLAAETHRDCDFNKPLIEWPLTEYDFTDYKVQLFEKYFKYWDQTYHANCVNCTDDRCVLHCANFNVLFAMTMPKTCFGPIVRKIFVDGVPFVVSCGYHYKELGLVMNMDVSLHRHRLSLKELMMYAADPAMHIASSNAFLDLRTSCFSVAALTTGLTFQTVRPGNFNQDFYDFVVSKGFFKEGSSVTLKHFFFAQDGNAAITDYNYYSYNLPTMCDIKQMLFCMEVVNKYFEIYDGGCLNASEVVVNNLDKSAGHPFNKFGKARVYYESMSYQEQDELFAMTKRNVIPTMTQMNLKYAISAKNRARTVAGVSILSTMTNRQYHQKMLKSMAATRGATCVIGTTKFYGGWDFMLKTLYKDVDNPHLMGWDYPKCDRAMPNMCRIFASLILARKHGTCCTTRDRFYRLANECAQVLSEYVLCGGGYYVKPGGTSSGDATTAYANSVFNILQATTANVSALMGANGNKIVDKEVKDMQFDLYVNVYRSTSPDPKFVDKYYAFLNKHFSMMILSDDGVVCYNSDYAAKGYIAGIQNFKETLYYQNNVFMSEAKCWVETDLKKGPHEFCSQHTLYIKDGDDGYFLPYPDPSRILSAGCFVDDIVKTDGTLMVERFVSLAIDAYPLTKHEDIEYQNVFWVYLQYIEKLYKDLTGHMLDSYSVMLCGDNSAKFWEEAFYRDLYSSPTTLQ
Sequence of MERS polymerase complex (12HC/7HC8) (K9N7C7 3846-3928 partner limits assumed): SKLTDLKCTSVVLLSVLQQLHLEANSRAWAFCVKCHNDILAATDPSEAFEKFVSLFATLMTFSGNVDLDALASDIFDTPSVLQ
Sequence of MERS polymerase complex (12HC/7HC8) (K9N7C7 3929-4127 partner limits assumed): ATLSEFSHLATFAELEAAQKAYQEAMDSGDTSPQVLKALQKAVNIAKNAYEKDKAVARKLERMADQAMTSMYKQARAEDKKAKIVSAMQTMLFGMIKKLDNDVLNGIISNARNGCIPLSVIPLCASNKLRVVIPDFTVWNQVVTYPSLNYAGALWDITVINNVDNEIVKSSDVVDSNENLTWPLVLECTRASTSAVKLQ
In another data set the target is T2, Dengue virus NS5 MTase (Dengue virus type 2, UniProt P29990).
T2 construct: Dengue virus NS5 MTase: 500 nM
T2 sequence (P29990 2493-2755 limits assumed): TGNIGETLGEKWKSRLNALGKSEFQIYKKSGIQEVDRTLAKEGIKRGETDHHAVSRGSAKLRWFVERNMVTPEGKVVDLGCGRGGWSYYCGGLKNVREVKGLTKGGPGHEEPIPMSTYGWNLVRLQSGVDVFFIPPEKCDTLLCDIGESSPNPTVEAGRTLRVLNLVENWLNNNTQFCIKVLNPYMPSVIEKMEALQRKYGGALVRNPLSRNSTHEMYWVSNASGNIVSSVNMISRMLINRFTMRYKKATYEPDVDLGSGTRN
Kind of data set: biochemical.

Another data set concerns the target T3, RSV MTase (Human respiratory syncytial virus A, UniProt P28887).
T3 construct: RSV MTase: 4 μM
Kind of data set: biochemical. Type of data set: biochemical.

In a further data set the target is T4, hMPV MTase (Human metapneumovirus, UniProt Q6WB93).
T4 construct: hMPV MTase: 1 μM
T4 sequence (Q6WB93 1599-2005 limits assumed): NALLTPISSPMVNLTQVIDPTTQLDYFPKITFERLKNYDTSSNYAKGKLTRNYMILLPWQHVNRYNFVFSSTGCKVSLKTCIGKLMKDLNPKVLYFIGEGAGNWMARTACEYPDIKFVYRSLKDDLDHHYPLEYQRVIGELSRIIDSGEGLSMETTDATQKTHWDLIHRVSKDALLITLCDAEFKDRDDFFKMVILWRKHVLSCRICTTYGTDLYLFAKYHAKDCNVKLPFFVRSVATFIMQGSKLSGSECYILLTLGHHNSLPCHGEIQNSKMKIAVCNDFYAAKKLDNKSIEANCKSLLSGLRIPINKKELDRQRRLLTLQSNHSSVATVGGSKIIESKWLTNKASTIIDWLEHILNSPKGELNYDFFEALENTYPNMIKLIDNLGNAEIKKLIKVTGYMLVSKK
Briefly: biochemical. Type of data set: biochemical.

Data set [4] addresses SARS polymerase complex (12HC/7HC8) (Severe acute respiratory syndrome coronavirus, UniProt P0C6X7). The data set is classed as biochemical.
Data set [5] has as its target human N7 MTase (hN7 or RNMT) (Homo sapiens, UniProt O43148). Briefly: biochemical.
The next data set in a line: in vitro. The following applies: human.
The test system of the next data set is MARV. The conditions noted are these: cited from earlier work.
Another data set deals with EBOV. The conditions noted are these: cited from earlier work.
Where [6] appears, read: read-out: EBOV EC50 (50% inhibition of virus-induced CPE).
The mark [7] stands for this setting: read-out: MARV EC50 (50% inhibition of virus-induced CPE).
The mark [8] stands for this setting: read-out: SUDV EC50 (50% inhibition of virus-induced CPE).
[9] abbreviates: Huh-7, read-out: EC50 against EBOV in Huh7 cells.

We go through five compounds from patent US11980630B2 (priority 2017, dated 2024).

Entries after “also recorded” stand apart in the source; their conditions may differ. Where two headings read alike, the source gives them in different places.

T1 sequence (A0A024B7W1 2521-2785 limits assumed): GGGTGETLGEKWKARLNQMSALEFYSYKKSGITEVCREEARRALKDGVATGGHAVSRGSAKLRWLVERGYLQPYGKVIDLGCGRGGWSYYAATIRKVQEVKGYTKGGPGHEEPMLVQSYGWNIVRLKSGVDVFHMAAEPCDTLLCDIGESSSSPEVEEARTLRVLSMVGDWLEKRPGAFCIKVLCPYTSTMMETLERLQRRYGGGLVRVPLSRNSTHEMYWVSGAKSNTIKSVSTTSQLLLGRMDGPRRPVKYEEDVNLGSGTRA
Sequence of human N7 MTase (hN7 or RNMT) (O43148 whole entry): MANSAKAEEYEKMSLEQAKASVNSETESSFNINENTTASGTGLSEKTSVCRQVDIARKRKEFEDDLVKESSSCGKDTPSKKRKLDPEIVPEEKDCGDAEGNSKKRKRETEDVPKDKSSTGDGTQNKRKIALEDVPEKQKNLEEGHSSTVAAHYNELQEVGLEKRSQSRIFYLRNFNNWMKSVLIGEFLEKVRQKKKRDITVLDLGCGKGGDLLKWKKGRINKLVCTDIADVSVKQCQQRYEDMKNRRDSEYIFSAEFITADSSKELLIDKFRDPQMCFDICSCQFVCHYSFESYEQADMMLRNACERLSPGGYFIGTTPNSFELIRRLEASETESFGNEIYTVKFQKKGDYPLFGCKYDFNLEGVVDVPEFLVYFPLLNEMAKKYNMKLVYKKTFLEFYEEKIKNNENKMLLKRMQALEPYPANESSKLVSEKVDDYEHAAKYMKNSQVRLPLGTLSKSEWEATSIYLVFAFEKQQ
T3 sequence (P28887 1820-2008 limits assumed): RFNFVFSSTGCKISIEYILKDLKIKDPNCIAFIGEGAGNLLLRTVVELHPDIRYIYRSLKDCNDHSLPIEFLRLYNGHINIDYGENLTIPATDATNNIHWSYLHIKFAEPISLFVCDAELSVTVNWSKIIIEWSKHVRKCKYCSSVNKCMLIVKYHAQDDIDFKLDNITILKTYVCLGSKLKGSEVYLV

As a reminder, the EC50 is the concentration giving half of the maximal effect. `COc1nc(N)ncc1-c1cn(COCCO)cn1` [Compound 1]: the “Antiviral activity against EBOV” value in the data set on EBOV (Makona) is given as “no detectable activity”. In addition, the half-maximal effective concentration (EC50) is greater than 100 µM with EBOV (Makona) (setting [6]); greater than 50 µM with Rift Valley Fever; greater than 100 µM in the data set with MARV (Ci67) (setting [7]); greater than 100 µM in the data set on SUDV (Gulu) (setting [8]); 2.2 ± 0.3 µM in data set [1] (Huh-7, read-out: EBOV EC50); 2.2 ± 0.3 µM in data set [1] (setting [9]). Also, the concentration giving a half-maximal response (EC50) in the data set with Lassa Virus is greater than 50 µM. Also, the “Antiviral activity against MARV” value in the data set with MARV (Ci67) is “no detectable activity”. Moreover, the figures for the CC50 in the data set on HeLa cells and in the data set on Huh7 cells were greater than 100 µM and greater than 50 µM, respectively. Also, in the data set with SUDV (Gulu), the “Antiviral activity against SUDV” value is “no detectable activity”. The “Antiviral activity against recombinant reporter EBOV” value in data set [1] is on record as “exhibited antiviral activity”.
One may read the IC50 as the concentration at which inhibition is half-maximal. A lower IC50 goes with inhibition by little substance. For the compound `COc1nc(N)ncc1-c1cn(COCCOP(=O)(O)OP(=O)(O)OP(=O)(O)O)cn1` [Compound 2MR04], in [2], the “Inhibition of SARS-nsp14 MTase activity” value is listed as “inhibits”. Further, at Zika virus NS5 MTase, the “Inhibition of Zika virus MTase activity” value is reported as “inhibits”. Moreover, the IC50 against Zika virus NS5 MTase (IC50 Zika NS5-MTase) was roughly 22 µM; at Zika virus NS5 MTase (IC50 in another testing (FIG. 15, effect on Zika Virus)), roughly 17 µM; against Dengue virus NS5 MTase, roughly 22 µM; against RSV MTase, roughly 18 µM; against hMPV MTase, roughly 31 µM; in data set [5] it was roughly 49 µM. Moreover, in [3], the “Reduction of product / oligonucleotide synthesis by MERS polymerase” value is recorded as “as effective as the 3′dGTP inhibitor; also recorded: as effective, not more effective, in reduction of oligonucleotide synthesis”. Further, on Dengue virus NS5 MTase, the “Inhibition of Dengue virus NS5 MTase activity” value was “inhibits”. For the same compound, the “Inhibition of RSV MTase activity” value on RSV MTase is on record as “strongly inhibiting”. Moreover, the “Inhibition of hMPV MTase activity” value at hMPV MTase is recorded as “strongly inhibiting; also recorded: inhibits”. Also, the “Reduction of product / oligonucleotide synthesis by SARS polymerase” value in data set [4] is “comparable to the other inhibitors”. Moreover, in data set [5], the “Inhibition of RNMT (RNA Guanine-7 Methyltransferase)” value is reported as “not inhibited”.
With `COc1nc(N)ncc1-c1cn(COCCOC(C)=O)cn1` [Compound 2], the EC50 in the data set on EBOV (Makona) (setting [6]) came out at 44 ± 13 µM; with MARV (Ci67) (setting [7]) it was 70 ± 27 µM; in the data set with SUDV (Gulu) (setting [8]), 20 ± 10 µM. In addition, the CC50 in “in vitro” and in the data set on HeLa cells was greater than 100 µM each time.
Take `CCC(CC)OC(=O)[C@@H](C)N[P@](=O)(OCCOCn1cnc(-c2cnc(N)nc2OC)c1)Oc1ccccc1` [Compound 3]: the “Antiviral activity against EBOV” value in the data set on EBOV (Makona) is given as “Activity against all three viruses was observed”. The EC50 in the data set on EBOV (Makona) (setting [6]) was 29 ± 9 µM; with EBOV (Makona) (read-out: EC50 EBOV in Hela cells (FIGS. 3-5)) it was 29.1 µM; in the data set on EBOV (Makona) (read-out: EC50 against EBOV in HeLa cells), 29 ± 9 µM; in the data set with Rift Valley Fever, greater than 50 µM; in the data set on MARV (Ci67) (read-out: EC50 MARV in Hela cells (FIGS. 3-5)), 62.3 µM; in the data set with MARV (Ci67) (setting [7]), 62 ± 13 µM. For the same compound, the concentration for a half-maximal effect (EC50) with SUDV (Gulu) (read-out: EC50 SUDV in Hela cells (FIGS. 3-5)) was 6.85 µM; in the data set with SUDV (Gulu) (read-out: EC50 against SUDV in HeLa cells) it was 7 ± 2 µM; in the data set with SUDV (Gulu) (setting [8]), 7 ± 2 µM; in data set [1] (Huh-7, read-out: EBOV EC50), 27.2 ± 2.2 µM; in data set [1] (setting [9]) it was 27.2 ± 2.2 µM; with Lassa Virus it was greater than 50 µM. In addition, the “Antiviral activity against MARV” value in the data set with MARV (Ci67) was “Activity against all three viruses was observed”. Besides, the CC50 is greater than 100 µM in the data set with HeLa cells and greater than 50 µM with Huh7 cells. Moreover, the “Antiviral activity against SUDV” value with SUDV (Gulu) is on record as “best activity against SUDV”. The “Antiviral activity against recombinant reporter EBOV” value in data set [1] was “active against EBOV at a similar concentration; also recorded: exhibited antiviral activity”. In [1], the “Potency of McGuigan prodrug relative to compound 1” value is on record as roughly 10 fold.
Regarding `CCC(CC)COC(=O)[C@H](C)N[P@](=O)(OC[C@H]1O[C@@](C#N)(c2ccc3c(N)ncnn23)[C@H](O)[C@@H]1O)Oc1ccccc1` [GS-5734], the “Activity against MARV (literature, words)” value with MARV is recorded as “very potent activity”. Moreover, the “Activity against EBOV (literature, words)” value in the data set on EBOV was “very potent activity”.
